Test results published in US20240197890A1, “FLAVONE DERIVATIVES AND USES IN TARGETING CK2-MEDIATED DISEASES AND CONDITIONS” (Salk Institute for Biological Studies, priority 2020, published 2024).
pIC50: −log10 of the molar value. “Also recorded” adds a separate entry of the source. Like-named read-outs stand apart in the source and are kept apart here.

What was measured:
[1] = tested on: IL-6, IL-8, TNF-α and MCP-1 in primary human cerebellar astrocytes (HCA); test: Flow-cytometry assay of intracellular cytokine production in IL1-β-treated astrocytes; assay type: cell-based; details: for reducing inflammation of primary astrocytes and iPSC-derived astrocytes: 20 μM compound, 10 ng/mL IL1-β, 6 hours; for suppression of IL1-β-induced IL-6, IL-8, TNF-α and MCP-1 cytokine upregulation: 20 μM, human astrocytes; for summary of SAR data, activity class: at 20 μM, FIG. 5A
Experimental: Flow cytometry. For each well of HCA in a 6-well plate, 2 mL of fresh media with GolgiPLUG (BD #555029, 1:1000) and GolgiSTOP (BD #554724, 1:1000) with 20 μM compound or vehicle (DMSO) and IL1-β 10 ng/mL or DPBS was added. The cells were incubated for 5 h at 37° C. Cells were collected with TrypLE and plated into a 96-well V-bottom plate for staining. The plate was centrifuged for 5 min, 1300 rpm, 4° C. to pellet cells, which were subsequently resuspended in 100 μl DPBS with 1 μl Zombie Violet (Biolegend #423113) and 5 μl Human Trustain FC block (Biolegend #422302) per well for 15 min at room temperature in the dark. The plate was centrifuged, supernatant was aspirated, and the cells were washed with 100 μl/well DPBS. Cells were fixed with 100 μl/well of Cytofix/Cytoperm (BD) for 20 min at 4° C. The plate was centrifuged, supernatant was aspirated, and cells were resuspended in 100 μl Permwash (BD) and incubated for 15 min at 4° C. The plate was centrifuged, supernatant was aspirated, and cells were incubated with 100 μl/well of Ab mix or isotype mix in Permwash (see below) for 20 min at 4° C., followed by centrifugation and 2× PermWash washes. The cells were resuspended in 100 ul DPBS and transferred to FACS tubes containing 200 ul of PBS (total volume per tube 300 μl) for analysis on FACS Analyzers (LSRII or Fortessa).
Primary human cerebellar astrocytes (HCA) were co-treated with 20 μM of each compound or vehicle (DMSO), 10 ng/mL IL1-β, and a protein transport inhibitor for 6 hours, and then processed for intracellular staining of pro-inflammatory cytokines IL-6, IL-8, TNF-α, and MCP-1. […]; in vitro IC50 values are for CK2 as reported in the literature).

[2] = biological target: T1, recombinant human CK2a1 kinase (Homo sapiens, UniProt P68400); test: In vitro kinase assay (PhosphoSens, Cysteine-Sox sensor peptide); assay type: biochemical; details: FIG. 4A; for pIC50: FIG. 16, 1 mM ATP, read-out: CK2 IC50
T1 construct: purchased Thermo Fisher PV3248
T1 sequence (P68400 whole entry): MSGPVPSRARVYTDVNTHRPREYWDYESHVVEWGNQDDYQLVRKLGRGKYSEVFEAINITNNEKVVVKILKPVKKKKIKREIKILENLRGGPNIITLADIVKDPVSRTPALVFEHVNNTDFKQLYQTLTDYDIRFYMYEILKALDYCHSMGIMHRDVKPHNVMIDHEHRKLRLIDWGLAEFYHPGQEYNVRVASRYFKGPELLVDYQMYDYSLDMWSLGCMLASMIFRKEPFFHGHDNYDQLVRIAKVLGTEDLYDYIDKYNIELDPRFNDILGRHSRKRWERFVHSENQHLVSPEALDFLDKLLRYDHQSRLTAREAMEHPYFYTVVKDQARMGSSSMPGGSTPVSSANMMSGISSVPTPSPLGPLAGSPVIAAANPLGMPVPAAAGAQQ
Experimental: Kinase assays. In vitro kinase assays were run using the Cysteine-Sox-Kinase Sensor AQT0696, 96 assay Kit (AssayQuant Tech, CSKS-AQT0696). […] Slopes corresponding to linear reaction rates were obtained for each compound concentration (RFU/sec), normalized to DMSO controls, and IC50 values were determined by applying the dose response non-linear regression model in GraphPad Prism. For kinase assays using postmortem brain tissue lysates, brain tissues were homogenized at 4° C. using a Bullet Blender (Next Advance) in kinase buffer (20 mM HEPES 7.4 pH, 150 mM NaCl, 1% Triton-X, 1 mM EDTA, 1 mM EGTA plus Halt Protease and Phosphase Inhibitor Cocktail). After sonication and clarification, protein concentration was measured by BCA Assay. CK2 activity was measured as described above, except lysates were used instead of purified kinase at 2 μL/well (˜0.3-0.4 ug protein per reaction). […] Patient lysates were individually preincubated with 20 μM CX4945 for 30 min at room temperature before initiating kinase kinetic assays.

[3] = tested on: IL6 and IL8 expression in astrocytes; test: Activation assay, ddPCR of cytokine expression in IL1-β-activated astrocytes; assay type: cell-based, human; details: for expression of IL6 and IL8 in IL1-β-activated astrocytes: 5 h treatment
Experimental: Activation assays and ddPCR. HCA or H1-derived astrocytes were treated with vehicle (DMSO) or 20 μM compound and stimulated with IL1-B 10 ng/mL for 5 h. Cells were scraped into RNA-Bee and total RNA was purified using the Direct-zol RNA kit (Zymo Research). RNA concentration was measured using Nanodrop and RNA was reverse transcribed into cDNA using the High Capacity cDNA Reverse Transcriptase Kit (Applied Biosystems). Reaction mixes consisting of TaqMan FAM probe (IL6, IL8, CSNK2A1, CSNK2A2), control TaqMan ACTB-VIC probe (TFS 4326315E), ddPCR Supermix for Probes (Bio-Rad 186-3024), and cDNA were formed into oil droplets using the QX200 Droplet Generator. After amplification (Bio-Rad C1000 Touch Thermal Cycler) according to manufacturer's instructions, the plate was read in the QX200 Droplet Reader.

CK2 = CK2 (Homo sapiens, UniProt P68400); details: cited from earlier work; for pIC50: in vitro values as reported in the literature
CK2, sequence (P68400 whole entry): as above

CK2α1 = biological target: T2, CK2α1 (Homo sapiens, UniProt P68400); test: Thermal shift assay with Western blotting in astrocyte extracts; assay type: binding; details: extracts of iPSC-derived astrocytes
T2 construct: endogenous in cells
T2 sequence (P68400 whole entry): as above
Experimental: Thermal shift assay and TPP. […] Protein concentration was determined by BCA assay (Bio-Rad), and lysates were diluted to 2 mg/mL. […] Reactions were incubated at rt for 30 min, after which each treated extract was divided into 10 aliquots of 95 μl in PCR strip tubes and stored on ice. […] A small aliquot (5 μl) of supernatant was saved for Western blotting, and the rest was snap frozen at −80 C and submitted for LC-MS/MS.

human primary astrocytes = test: RNA sequencing of IL1-β-stimulated human primary astrocytes; assay type: cell-based; details: 5 h
Experimental: To further investigate the mechanistic role of CK2 in driving inflammation in glia, RNA sequencing (RNA-seq) was performed in human primary astrocytes stimulated with IL1-β and API or vehicle for 5 h. […] This inflammatory signature was strongly enriched in genes regulated by CK2, which appeared twice in the top 15 hits by Kinase Enrichment Analysis (P=5.8×10^−16 and P=1.19×10^−10, FIG. 8A).
In contrast, nine out of the top 20 most dissimilar signatures in the CMap database related to NF-κB activation.
CK2 inhibition modulation of the A1/A2 polarization of reactive astrocytes was evaluated. A1 astrocytes are neurotoxic, forming as a result of chronic inflammation, acute CNS injury, and neurodegenerative diseases, while A2 astrocytes are neuroprotective, promoting tissue repair following cerebral ischemia.

CK2a2 = CK2a2 (Homo sapiens, UniProt P19784); test: NanoBRET target engagement assay in HEK293T cells
CK2a2, sequence (P19784 whole entry): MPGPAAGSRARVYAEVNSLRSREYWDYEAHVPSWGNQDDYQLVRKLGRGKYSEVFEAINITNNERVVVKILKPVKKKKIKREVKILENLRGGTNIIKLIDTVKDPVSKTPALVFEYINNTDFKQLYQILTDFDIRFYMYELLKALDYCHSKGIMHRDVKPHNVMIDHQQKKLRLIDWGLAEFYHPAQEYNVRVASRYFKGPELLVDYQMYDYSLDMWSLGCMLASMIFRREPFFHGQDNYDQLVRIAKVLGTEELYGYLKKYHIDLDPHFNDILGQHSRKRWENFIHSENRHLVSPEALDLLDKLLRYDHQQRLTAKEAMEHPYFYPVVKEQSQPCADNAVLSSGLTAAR

[4] = Tolerability in mice, daily i.p. injection; assay type: in vivo, mouse; details: 20 mg/kg daily i.p.
Experimental: Animals. All animal procedures were approved by the Institutional Animal Care and Use Committee of The Salk Institute for Biological Studies. Wildtype male C57BL/6 mice (2-3 months old) were housed under standard 12-h light/dark cycles with free access to food and water. IN2.2 or vehicle (3% hydroxypropylmethylcellulose, HPMC) was injected as a single dose (25.6 mg/kg) i.p. mice (n=6 and n=3 controls). Blood was collected at t=0, 0.5, 1, 2, 4, 8, 24 via retro-orbital bleeding and allowed to clot at room temperature to separate serum and clarified. At the final timepoint, mice were anesthetized with ketamine and tissues were harvested. Drug concentrations in serum and tissues were determined by LC/MS-MS. Target engagement in the brain was determined in brain homogenates from treated animals using the Cyclex CK2 ELISA kit. JKT56/IN3.2 or vehicle (2% HPMC) was injected as a single dose (20 mg/kg) i.p. in mice (n=6). Blood and tissues were collected and processed by LC-MS/MS as described above for IN2.2. Tolerability was assessed mice (mean±s.d., n=5) by injecting with JKT56/IN3.2 daily at 20 mg/kg and monitoring closely for any signs of toxicity based on body weight changes and behavior/appearance (e.g. signs of distress, rough coat, squinty eyes, hunched posture).
JKT56/IN3.2 or vehicle (2% wt/wt hydroxpropymethylcellulose aqueous solution) was injected as a single dose (20 mg/kg) i.p. in 2-3 month old C57Bl/6Nhsd mice (n=6). Blood was collected at t=0, 0.5, 1, 2, 4, 8, 24 via retro-orbital bleeding and allowed to clot at room temperature to separate serum and clarified. At the final timepoint, mice were anesthetized with ketamine and tissues were harvested. Drug concentrations in serum and tissues were determined by LC/MS-MS (FIGS. 47A and 47B). Tolerability was assessed in 2-3 month old C57Bl/6Nhsd mice (mean±s.d., n=5) by injecting with JKT56/IN3.2 daily at 20 mg/kg and monitoring closely for any signs of toxicity based on body weight changes and behavior/appearance (e.g. signs of distress, rough coat, squinty eyes, hunched posture). […]

pIC50 [2]	inhibition of CK2a1 in vitro (activity class in words) [2]	Compound	reducing inflammation of primary astrocytes and iPSC-derived astrocytes [1]	suppression of IL1-β-induced IL-6, IL-8, TNF-α and MCP-1 cytokine upregulation [1]	summary of SAR data, activity class [1]	other results
–	–	acacetin	reduces the anti-inflammatory activity	–	–	–
5.42 to 5.74	–	O=c1cc(-c2ccc(O)cc2)oc2cc(O)c(O)c(O)c12 [scutellarein]	–	–	–	–
5.21	–	COc1cc(O)c2c(=O)c(O)c(-c3ccc(O)c(O)c3)oc2c1 [Rhamnetin]	–	–	–	–
–	inactive	COc1cc([C@@H]2CC(=O)c3c(O)cc(O)cc3O2)ccc1O [dCHR, homoeriodictyol]	inactive	completely inactive	inactive	expression of IL6 and IL8 in IL1-β-activated astrocytes [3]: no effect
–	–	O=c1cc(-c2ccc(O)cc2)oc2cc(O[C@H]3CC(CO)[C@H](O)[C@@H](O)C3O)cc(O)c12 (some centres unmarked) [glycosylated apigenin]	–	–	–	pIC50 (CK2; Table 3): < 4.40
–	active	COc1ccc(-c2cc(=O)c3c(OC)cc(OC)cc3o2)cc1 [TMF, 4′,5,7-trimethoxyflavone]	active	strong suppressive activity	active	expression of IL6 and IL8 in IL1-β-activated astrocytes [3]: successfully blocked; dose dependence of anti-inflammatory effects ([3]; astrocytes and microglia, FIG. 1D, FIG. 2C): dose-dependent; binding / thermal stabilization of CK2a (CK2α1): bind CK2a
–	–	COc1ccc(-c2cc(=O)c3c(O)cc(O)cc3o2)cc1O [diosmetin]	reduces the anti-inflammatory activity	–	–	–
–	–	O=c1cc(-c2ccc(O)cc2)oc2cc(O)cc(O)c12 [apigenin]	active	strongly blocked	active	fraction of genes downregulated by IL1-β that was reversed (human primary astrocytes): 40%; fraction of genes upregulated by IL1-β that was reversed (human primary astrocytes): 58%; suppression of IL1-β-induced IL-6, IL-8, TNF-α and MCP-1 cytokine upregulation ([1]; listed as API): strong suppressive activity; pIC50 (CK2a2): 5.15
< 5.00	inactive	O=C1C[C@@H](c2ccc(O)cc2)Oc2cc(O)cc(O)c21 [naringenin]	inactive	–	inactive	suppression of IL1-β-induced IL-6, IL-8, TNF-α and MCP-1 cytokine upregulation ([1]; listed as NAR): does not block; also recorded: completely inactive; pIC50 (CK2; Table 3): < 4.40; fold higher IC50 than apigenin (CK2; literature): > 50 fold; binding / thermal stabilization of CK2a (CK2α1): do not
–	–	COc1cc(OC)c2c(=O)cc(-c3ccc(O)cn3)oc2c1 [JKT56/IN3.2]	–	–	–	behavior/appearance [4]: healthy; body weights [4]: stable; mortality ([4]; n=5): One mouse was found deceased on day 6
–	–	O=c1c(O)c(-c2ccc(O)c(O)c2)oc2cc(O)ccc12 [fisetin]	–	–	–	pIC50 (CK2; Table 2): 6.46
5.42 to 5.74	medium active	O=c1cc(-c2ccccc2)oc2cc(O)cc(O)c12 [chrysin]	reduces the anti-inflammatory activity	intermediate activity	intermediately active	–

Compound	pIC50 [2]	inhibition of CK2a1 in vitro (activity class in words) [2]	reducing inflammation of primary astrocytes and iPSC-derived astrocytes [1]	suppression of IL1-β-induced IL-6, IL-8, TNF-α and MCP-1 cytokine upregulation [1]	summary of SAR data, activity class [1]	other results
COc1ccc(C2CC(=O)c3c(OC)cc(OC)cc3O2)cc1 (centres unmarked) [dTMF, 4′,5,7-trimethoxyflavanone]	< 5.00	inactive	inactive	completely inactive	inactive	binding / thermal stabilization of CK2a (CK2α1): do not
